The subject of the assay is P388 leukemia ip, CD2F1 mice, survival T/C. The assay can be described thus: NCI In Vivo Anticancer Drug Screen. Data for tumor model P388 Leukemia (intraperitoneal) in CD2F1 (CDF1) mice. The note with it: endpoint: median survival time, higher = longer survival. Put shortly:
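Mice carrying the transplanted tumor received test compound or vehicle. Survival was recorded in each group, and the value is the treated-group measurement divided by that of the vehicle-treated control group.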

The mark [1] stands for this setting: dose: 50.0 mg/kg/injection, schedule: Q01DX009 (ip), vehicle: saline with Tween-80.
[2] abbreviates: dose: 100.0 mg/kg/injection, schedule: Q01DX009 (ip), vehicle: saline with Tween-80.
The mark [3] stands for this setting: dose: 100.0 mg/kg/injection, schedule: Q04DX003 (ip), vehicle: saline with Tween-80.
Setting [4] is: dose: 200.0 mg/kg/injection, schedule: Q01DX009 (ip), vehicle: saline with Tween-80.
Setting [5] is: dose: 200.0 mg/kg/injection, schedule: Q04DX003 (ip), vehicle: saline with Tween-80.
The mark [6] stands for this setting: dose: 25.0 mg/kg/injection, schedule: Q01DX009 (ip), vehicle: Klucel (hydroxypropylcellulose) (HPC).
Setting [7] is: dose: 50.0 mg/kg/injection, schedule: Q01DX009 (ip), vehicle: Klucel (hydroxypropylcellulose) (HPC).
[8] abbreviates: dose: 120.0 mg/kg/injection, schedule: Q01DX005 (ip), vehicle: Klucel (hydroxypropylcellulose) (HPC).
The mark [9] stands for this setting: dose: 240.0 mg/kg/injection, schedule: Q01DX005 (ip), vehicle: Klucel (hydroxypropylcellulose) (HPC).
Where [10] appears, read: dose: 100.0 mg/kg/injection, schedule: Q01DX001 (ip), vehicle: saline.
Where [11] appears, read: dose: 200.0 mg/kg/injection, schedule: Q01DX001 (ip), vehicle: saline.
Where [12] appears, read: dose: 400.0 mg/kg/injection, schedule: Q01DX001 (ip), vehicle: saline.
Setting [13] is: dose: 6.25 mg/kg/injection, schedule: Q01DX009 (ip), vehicle: saline with Tween-80.
The mark [14] stands for this setting: dose: 12.5 mg/kg/injection, schedule: Q01DX009 (ip), vehicle: saline with Tween-80.

Several values for one entry are separate records, joined by “and”; a condition that tells them apart may be missing. Equal values may be shown once. Toxic doses and inconclusive results are not listed.

As for `CCN1C(=O)C(=O)c2ccccc21`, the T/C (dose: 18.75 mg/kg/injection, schedule: Q01DX009 (ip), vehicle: saline with Tween-80) is 96 % of control; the T/C (dose: 18.75 mg/kg/injection, schedule: Q01DX009 (ip), vehicle: saline) was 107 % of control; the T/C (dose: 37.5 mg/kg/injection, schedule: Q01DX009 (ip), vehicle: saline with Tween-80) is 96 % of control; the T/C (dose: 37.5 mg/kg/injection, schedule: Q01DX009 (ip), vehicle: saline) was 102 % of control and 110 % of control; the T/C (dose: 75.0 mg/kg/injection, schedule: Q01DX009 (ip), vehicle: saline with Tween-80) is 100 % of control; the T/C (dose: 75.0 mg/kg/injection, schedule: Q01DX009 (ip), vehicle: saline) was 104 % of control and 105 % of control.

In the case of `CCn1c(=O)oc2ccc(Br)cc21`, the T/C runs as follows: (dose: 100.0 mg/kg/injection, schedule: Q04DX002 (ip), vehicle: Klucel (hydroxypropylcellulose) (HPC)) 100 % of control; (dose: 200.0 mg/kg/injection, schedule: Q04DX002 (ip), vehicle: Klucel (hydroxypropylcellulose) (HPC)) 98 % of control; (dose: 400.0 mg/kg/injection, schedule: Q04DX002 (ip), vehicle: Klucel (hydroxypropylcellulose) (HPC)) 104 % of control.

Turning to `CC(CCC(=O)O)C1CCC2C3CCC4CC(OC=O)CCC4(C)C3CC(OC=O)C12C` (stereo not given), the T/C under setting [1] was 95 % of control; the T/C (dose: 50.0 mg/kg/injection, schedule: Q04DX003 (ip), vehicle: saline with Tween-80) was 105 % of control; the T/C under setting [2] is 90 % of control; the T/C under setting [3] was 100 % of control; the T/C under setting [4] is 90 % of control; the T/C under setting [5] is 100 % of control.

With `O=c1[nH]c(=O)c2ccccc2o1`, the T/C runs as follows: (dose: 6.25 mg/kg/injection, schedule: Q01DX009 (ip), vehicle: Klucel (hydroxypropylcellulose) (HPC)) 104 % of control; (dose: 12.5 mg/kg/injection, schedule: Q01DX009 (ip), vehicle: Klucel (hydroxypropylcellulose) (HPC)) 111 % of control; under setting [6], 110 % of control; under setting [7], 106 % of control.

For the compound `C[n+]1cccc2c1-c1ccccc1C2=O`, the T/C (dose: 25.0 mg/kg/injection, schedule: Q01DX005 (ip), vehicle: Klucel (hydroxypropylcellulose) (HPC)) was 101 % of control; the T/C (dose: 50.0 mg/kg/injection, schedule: Q01DX005 (ip), vehicle: Klucel (hydroxypropylcellulose) (HPC)) was 115 % of control; the T/C (dose: 100.0 mg/kg/injection, schedule: Q01DX005 (ip), vehicle: Klucel (hydroxypropylcellulose) (HPC)) is 101 % of control; the T/C (dose: 200.0 mg/kg/injection, schedule: Q01DX005 (ip), vehicle: Klucel (hydroxypropylcellulose) (HPC)) was 91 % of control.

Turning to `CN(C)c1ccc2nc3ccc(=N)cc-3sc2c1`, the T/C (dose: 60.0 mg/kg/injection, schedule: Q01DX005 (ip), vehicle: saline) was 114 % of control and the T/C (dose: 120.0 mg/kg/injection, schedule: Q01DX005 (ip), vehicle: saline) was 118 % of control.

In the case of `Nc1nc(N)nc(Nc2ccc(-c3cc4ccc(-c5ncc[nH]5)cc4[nH]3)cc2)n1`, the T/C by setting is: (dose: 30.0 mg/kg/injection, schedule: Q01DX005 (ip), vehicle: Klucel (hydroxypropylcellulose) (HPC)) 153 % of control; under setting [8], 164 % of control and 171 % of control; under setting [9], 183 % of control and 188 % of control.

As for `COC(=O)c1ccccc1NC(=O)N1CC1`, the T/C was 105 % of control (dose: 50.0 mg/kg/injection, schedule: Q01DX005 (ip), vehicle: DMSO) and 118 % of control (dose: 100.0 mg/kg/injection, schedule: Q01DX005 (ip), vehicle: DMSO).

Turning to `O=c1c(Cc2ccccc2)c([O-])[n+](Cc2ccccc2)c(-c2ccccc2)n1-c1ccccc1`, the T/C runs as follows: (dose: 60.0 mg/kg/injection, schedule: Q01DX005 (ip), vehicle: Klucel (hydroxypropylcellulose) (HPC)) 98 % of control; under setting [8], 91 % of control; under setting [9], 90 % of control.

Turning to `CN(c1ccccc1)c1c2c(oc(=O)c1Cl)CCSC2`, the T/C under setting [3] was 94 % of control; the T/C under setting [5] is 98 % of control; the T/C (dose: 400.0 mg/kg/injection, schedule: Q04DX003 (ip), vehicle: saline with Tween-80) is 91 % of control.

As for `CCC(C)Sc1nc(N)nc2c1ncn2C1OC(CO)C(O)C1O` (stereo not given), the T/C reads like this: (dose: 44.0 mg/kg/injection, schedule: Q01DX009 (ip), vehicle: saline with Tween-80) 100 % of control; (dose: 66.0 mg/kg/injection, schedule: Q01DX009 (ip), vehicle: saline with Tween-80) 100 % of control; under setting [2], 95 % of control; (dose: 150.0 mg/kg/injection, schedule: Q01DX009 (ip), vehicle: saline with Tween-80) 104 % of control; (dose: 176.0 mg/kg/injection, schedule: Q04DX003 (ip), vehicle: saline with Tween-80) 114 % of control; under setting [4], 120 % of control. Further, the T/C (dose: 264.0 mg/kg/injection, schedule: Q04DX003 (ip), vehicle: saline with Tween-80) was 123 % of control.

With `NC(=O)C[CH2][Sn]([Cl])([Cl])[CH2]CC(N)=O`, the T/C (dose: 50.0 mg/kg/injection, schedule: Q01DX005 (ip), vehicle: saline) was 98 % of control; the T/C (dose: 100.0 mg/kg/injection, schedule: Q01DX005 (ip), vehicle: saline) was 98 % of control; the T/C (dose: 200.0 mg/kg/injection, schedule: Q01DX005 (ip), vehicle: saline) is 105 % of control.

As to `OC1(c2ccccc2)c2ccc(Br)cc2-c2cc(Br)ccc21`, the T/C runs as follows: under setting [2], 101 % of control; under setting [4], 104 % of control; (dose: 400.0 mg/kg/injection, schedule: Q01DX009 (ip), vehicle: saline with Tween-80) 100 % of control.

Consider `O=C(c1ccccc1)c1c(-c2ccccc2)noc1-c1ccccc1`, for which the T/C is 109 % of control (dose: 100.0 mg/kg/injection, schedule: Q04DX003 (ip), vehicle: saline); 100 % of control (dose: 200.0 mg/kg/injection, schedule: Q04DX003 (ip), vehicle: saline); 108 % of control (dose: 400.0 mg/kg/injection, schedule: Q04DX003 (ip), vehicle: saline).

For the compound `Nc1ccc(C(=O)c2cccs2)cn1`, the T/C runs as follows: (dose: 50.0 mg/kg/injection, schedule: Q01DX005 (ip), vehicle: distilled water + alcohol) 98 % of control; (dose: 100.0 mg/kg/injection, schedule: Q01DX005 (ip), vehicle: distilled water + alcohol) 104 % of control.

For `S=c1nc[nH]c2cc3cn[nH]c3cc12`, the T/C is 94 % of control (dose: 50.0 mg/kg/injection, schedule: Q01DX005 (ip), vehicle: saline with Tween-80); 96 % of control (dose: 100.0 mg/kg/injection, schedule: Q01DX005 (ip), vehicle: saline with Tween-80); 92 % of control (dose: 200.0 mg/kg/injection, schedule: Q01DX005 (ip), vehicle: saline with Tween-80).

Turning to `O=C1CSC(COc2ccc(Cl)cc2Cl)O1` (stereo not given), the T/C under setting [6] was 100 % of control and the T/C under setting [7] was 97 % of control.

Take `C=CCC1(COS(N)(=O)=O)OC(n2cnc3c(N)ncnc32)C(O)C1O` (stereo not given): the T/C is 101 % of control (dose: 50.0 mg/kg/injection, schedule: Q01DX001 (ip), vehicle: saline); 101 % of control under setting [10]; 111 % of control under setting [11]; 99 % of control under setting [12].

Regarding `CCOP1(OCC)(OCC)OC(C(F)(F)F)(C(F)(F)F)C(C(F)(F)F)(C(F)(F)F)O1`, the T/C is, setting by setting: under setting [13], 100 % of control; under setting [14], 105 % of control.

Turning to `c1ccc2[nH]c(N=Nc3cccc4c(N=Nc5cc6ccccc6[nH]5)cccc34)cc2c1`, the T/C reads like this: under setting [1], 100 % of control; under setting [2], 100 % of control; under setting [4], 103 % of control.

For the compound `CC(C)=CCC1=CC(=O)C=CC1=O`, the T/C reads like this: under setting [13], 98 % of control; under setting [14], 99 % of control; (dose: 25.0 mg/kg/injection, schedule: Q01DX009 (ip), vehicle: saline with Tween-80) 107 % of control; under setting [1], 114 % of control.

Regarding `N=C1/C(=C\c2ccccc2O)C(=O)NN1C(=O)c1ccncc1`, the T/C is, setting by setting: under setting [10], 103 % of control; under setting [11], 98 % of control; under setting [12], 104 % of control.
